System: 138582-337-R-J1-PDC complex spheroid viability
Test: Anticancer human tumor 138582-337-R-J1-PDC patient-derived Merkel cell tumor cell line growth inhibition
Conditions: for IC50: curve of first compound; for viability, T/C: stronger effect = lower value
Text: Multicellular complex tumor spheroid response to LSD1 Inhibitor Iadademstat in combination with a variety of drugs and investigational agents in selected tumor cell lines
The current study was undertaken to assess response to LSD1 inhibitors in combination with standard-of-care drugs and investigational agents in solid tumor complex spheroid models as well as in the K-562 leukemia. Complex spheroids include a stromal component modeled by human endothelial cells (HUVEC) and fibroblasts modeled by human mesenchymal stem cells (MSCs). The concentration ranges selected for each drug and investigational agent were based upon clinically achievable concentrations if the clinical Cmax of the agent was known.
Compounds. The drugs and investigational agents used in this study are listed on Table 1. All of the agents used, including staurosporine (NSC755774) and gemcitabine (NSC613327), were obtained from the Developmental Therapeutics Program, NCI. FDA-approved anticancer drugs are available from the NCI at http://dtp.nci.nih.gov/branches/dscb/oncology_drugset_explanation.html. Drugs and investigational agents were >95% pure by proton nuclear magnetic resonance (NMR) and liquid chromatography/mass spectrometry (LC/MS). Stock solutions were prepared at 400x in DMSO, stored at -70 degrees C, and diluted in fresh medium prior to their use. The final concentration of DMSO in cell culture wells never exceeded 0.25% (v/v). The FDA-approved anticancer drug set is available from the Developmental Therapeutics Program at https://dtp.cancer.gov/organization/dscb/obtaining/available_plates.htm. All drugs and investigational agents were tested over a range starting from a high concentration at or near the clinical Cmax and decreasing in half-log increments. If the clinical Cmax for an agent had not been determined, the highest concentration tested was 10 microM.
Cell Lines. The patient-derived cancer cell (PDC) lines: 292921-168-R-J2-PDC, K24384-001-R-PDC, and 521955-158-R2-J5-PDC pancreatic carcinomas, 556581-035-R-J1 ovarian carcinoma, 324938-238-R-J1-PDC, 855422-203-R-J1-PDC and 883617-216-R-J1-PDC urothelial bladder carcinomas, 743489-274-T-PDC renal cell carcinoma, 138582-R-J1 Merkel cell tumor, K60290-347-R-J1 and K57222-313-R-J1-PDC glioblastomas, 653999-131-R-J2-PDC, LG0703-F948-PDC, and 349418-098-R-PDC non-small cell lung carcinomas, 885512-296-R-J2-PDC, 171881-019-R-J1-PDC breast carcinomas and 186277-243-T-J2-PDC and 233499-124-R-J2-PDC colon carcinomas were obtained from the NCI Patient-Derived Models Repository (PDMR, https://pdmr.cancer.gov). The established cell lines NCI/ADR-RES (RRID:CVCL_14520 and OVCAR-5 (RRID:CVCL_1628) ovarian carcinomas, 786-O (RRID:CVCL_1051) and A498 (RRID:CVCL_A498) renal cell carcinoma, NCI-H211 (ATCC, cat. CRL-5824; RRID:CVCL_1529), NCI-H196 (ATCC, cat. CRL-5823, RRID:CVCL_1509), SW 1271 (ATCC, cat. CRL-2177, RRID:CVCL_1716) and NCI-H1876 (ATCC, cat. CRL-5902, RRID:CVCL_1503) small cell lung carcinomas, MDA-MB-231 (RRID:CVCL_0062) and MDA-MB-468 (RRID:CVCL_0419)breast carcinomas (10-12). Pooled donor human umbilical vein endothelial cells (HUVEC, Lonza, cat. CC-2519) and human mesenchymal stem cells (hMSC, Lonza, cat. PT-2501) were purchased from Lonza (Walkersville, MD).
Cell Culture. All cells were maintained in an incubator at 37 degrees C and 5% CO2 with 95% humidity. The PDC lines were cultured according to standard operating procedures established by the NCI PDMR (https://pdmr.cancer.gov). Briefly all PDCs were thawed and cultured in Matrigel-coated flasks prepared with a working solution of 1X Ham's F-12 nutrient mix, without supplementation (Invitrogen, Waltham, MA, cat. 11765054), 100 U/mL penicillin-streptomycin (Invitrogen, cat. 15140122), and 2.5% Matrigel (Corning Inc., Corning, NY, cat. 354248) for the first three passages. […]

[1] = second compound 0.1 µM, first compound 0.0316 µM
[2] = second compound 0.1 µM, first compound 0.1 µM
[3] = second compound 0.1 µM, first compound 0.316 µM
[4] = second compound 0.1 µM, first compound 1 µM
[5] = second compound 0.1 µM, first compound 3.16 µM
[6] = second compound 0.1 µM, first compound 10 µM
[7] = second compound 0.316 µM, first compound 0.0316 µM
[8] = second compound 0.316 µM, first compound 0.1 µM
[9] = second compound 0.316 µM, first compound 0.316 µM
[10] = second compound 0.316 µM, first compound 1 µM
[11] = second compound 0.316 µM, first compound 3.16 µM
[12] = second compound 0.316 µM, first compound 10 µM
[13] = second compound 1 µM, first compound 0.0316 µM
[14] = second compound 1 µM, first compound 0.1 µM
[15] = second compound 1 µM, first compound 0.316 µM
[16] = second compound 1 µM, first compound 1 µM
[17] = second compound 1 µM, first compound 3.16 µM
[18] = second compound 1 µM, first compound 10 µM
[19] = second compound 3.16 µM, first compound 0.0316 µM
[20] = second compound 3.16 µM, first compound 0.1 µM
[21] = second compound 3.16 µM, first compound 0.316 µM
[22] = second compound 3.16 µM, first compound 1 µM
[23] = second compound 3.16 µM, first compound 3.16 µM
[24] = second compound 3.16 µM, first compound 10 µM
[25] = second compound 10 µM, first compound 0.0316 µM
[26] = second compound 10 µM, first compound 0.1 µM
[27] = second compound 10 µM, first compound 0.316 µM
[28] = second compound 10 µM, first compound 1 µM
[29] = second compound 10 µM, first compound 3.16 µM
[30] = second compound 10 µM, first compound 10 µM
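Further: spheroids exposed to agents for 7 days.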
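Wherever viability, T/C is given: 100% = DMSO vehicle control viability.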

## COc1ccc([C@@H](O)c2cc(-c3ncnc4cc(N5CCOCC5)ccc34)c(F)cc2Cl)nn1 + NC1CCC(NC2CC2c2ccccc2)CC1
Second compound 0.1 µM
  IC50: 1560 nM
Second compound 0.316 µM
  IC50: 2570 nM
Second compound 1 µM
  IC50: 1480 nM
Second compound 3.16 µM
  IC50: 1800 nM
Second compound 10 µM
  IC50: 1410 nM
[1]
  viability, T/C: 80.6%
[2]
  viability, T/C: 96.2%
[3]
  viability, T/C: 76.5%
[4]
  viability, T/C: 54.6%
[5]
  viability, T/C: 44.9%
[6]
  viability, T/C: 32.9%
[7]
  viability, T/C: 76.4%
[8]
  viability, T/C: 77.3%
[9]
  viability, T/C: 62.6%
[10]
  viability, T/C: 63.1%
[11]
  viability, T/C: 46.8%
[12]
  viability, T/C: 33.3%
[13]
  viability, T/C: 83.1%
[14]
  viability, T/C: 74.5%
[15]
  viability, T/C: 71.7%
[16]
  viability, T/C: 50.3%
[17]
  viability, T/C: 44.7%
[18]
  viability, T/C: 33.7%
[19]
  viability, T/C: 81.1%
[20]
  viability, T/C: 90.1%
[21]
  viability, T/C: 69.1%
[22]
  viability, T/C: 61.2%
[23]
  viability, T/C: 40.7%
[24]
  viability, T/C: 24.2%
[25]
  viability, T/C: 87.2%
[26]
  viability, T/C: 72.5%
[27]
  viability, T/C: 75.9%
[28]
  viability, T/C: 47.1%
[29]
  viability, T/C: 43.4%
[30]
  viability, T/C: 14.2%

## COc1cc(Nc2ncc3c(n2)-c2ccc(Cl)cc2C(c2c(F)cccc2OC)=NC3)ccc1C(=O)O + NC1CCC(NC2CC2c2ccccc2)CC1
Second compound 0.1 µM
  IC50: > 1000 nM
Second compound 0.316 µM
  IC50: > 1000 nM
Second compound 1 µM
  IC50: > 1000 nM
Second compound 3.16 µM
  IC50: > 1000 nM
Second compound 10 µM
  IC50: > 1000 nM
Second compound 0.1 µM, first compound 0.00316 µM
  viability, T/C: 89.6%
Second compound 0.1 µM, first compound 0.01 µM
  viability, T/C: 97.8%
[1]
  viability, T/C: 85.2%
[2]
  viability, T/C: 83.3%
[3]
  viability, T/C: 93%
[4]
  viability, T/C: 88.3%
Second compound 0.316 µM, first compound 0.00316 µM
  viability, T/C: 99.2%
Second compound 0.316 µM, first compound 0.01 µM
  viability, T/C: 91.4%
[7]
  viability, T/C: 91.4%
[8]
  viability, T/C: 86.8%
[9]
  viability, T/C: 98.2%
[10]
  viability, T/C: 90.1%
Second compound 1 µM, first compound 0.00316 µM
  viability, T/C: 89.6%
Second compound 1 µM, first compound 0.01 µM
  viability, T/C: 93.3%
[13]
  viability, T/C: 88.1%
[14]
  viability, T/C: 98%
[15]
  viability, T/C: 96.3%
[16]
  viability, T/C: 84.1%
Second compound 3.16 µM, first compound 0.00316 µM
  viability, T/C: 98.2%
Second compound 3.16 µM, first compound 0.01 µM
  viability, T/C: 94.9%
[19]
  viability, T/C: 87.1%
[20]
  viability, T/C: 78.9%
[21]
  viability, T/C: 74.7%
[22]
  viability, T/C: 83%
Second compound 10 µM, first compound 0.00316 µM
  viability, T/C: 99.9%
Second compound 10 µM, first compound 0.01 µM
  viability, T/C: 98.6%
[25]
  viability, T/C: 90.5%
[26]
  viability, T/C: 76.9%
[27]
  viability, T/C: 87.2%
[28]
  viability, T/C: 74.2%

## CC(C)c1c(-c2ccccc2)nc2c(C#N)c[nH]n2c1=O + NC1CCC(NC2CC2c2ccccc2)CC1
Second compound 0.1 µM
  IC50: > 10000 nM
Second compound 0.316 µM
  IC50: > 10000 nM
Second compound 1 µM
  IC50: > 10000 nM
Second compound 3.16 µM
  IC50: > 10000 nM
Second compound 10 µM
  IC50: > 10000 nM
[1]
  viability, T/C: 104%
[2]
  viability, T/C: 103%
[3]
  viability, T/C: 93.8%
[4]
  viability, T/C: 92.3%
[5]
  viability, T/C: 86%
[6]
  viability, T/C: 89.7%
[7]
  viability, T/C: 94.2%
[8]
  viability, T/C: 102%
[9]
  viability, T/C: 94.8%
[10]
  viability, T/C: 82%
[11]
  viability, T/C: 97.1%
[12]
  viability, T/C: 102%
[13]
  viability, T/C: 86.3%
[14]
  viability, T/C: 93.9%
[15]
  viability, T/C: 85.7%
[16]
  viability, T/C: 92%
[17]
  viability, T/C: 90%
[18]
  viability, T/C: 106%
[19]
  viability, T/C: 90%
[20]
  viability, T/C: 86.5%
[21]
  viability, T/C: 97.3%
[22]
  viability, T/C: 79.5%
[23]
  viability, T/C: 81.5%
[24]
  viability, T/C: 83.5%
[25]
  viability, T/C: 96.7%
[26]
  viability, T/C: 82.7%
[27]
  viability, T/C: 73.4%
[28]
  viability, T/C: 88.2%
[29]
  viability, T/C: 80.4%
[30]
  viability, T/C: 79.7%

Source: PubChem BioAssay AID1918931 (Molecular Pharmacology Branch, DTP, NCI, 2023)
